# Laboratory results published in ChEMBL document CHEMBL1201862, “PubChem BioAssay data set” (2004).
#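 Exposure lasted 48 hours, with cells grown in 96-well plates and compounds tested at five concentrations. The concentration for 50% growth inhibition is given as GI50.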 Calls of active or inactive are those of the source. Rule as the data show it: active = GI50 up to about 1.1 µM and inactive = higher.
# Key:
# Assay in all cases: inhibition of tumour cell growth, NCI panel, 48 h
# A498 = test system: A498
# A549 = test system: A549
# DU-145 = test system: DU-145
# HCC 2998 = test system: HCC 2998
# HOP-62 = test system: HOP-62
# HOP-92 = test system: HOP-92
# HT-29 = test system: HT-29
# Hs-578T = test system: Hs-578T
# IGROV-1 = test system: IGROV-1
# K562 = test system: K562
# MDA-N = test system: MDA-N
# Malme-3M = test system: Malme-3M
# NCI-H23 = test system: NCI-H23
# NCI/ADR-RES = test system: NCI/ADR-RES
# SK-MEL-5 = test system: SK-MEL-5
# SNB-75 = test system: SNB-75
# SW-620 = test system: SW-620
# TK-10 = test system: TK-10
# U-251 = test system: U-251
# UO-31 = test system: UO-31
Structure (SMILES),GI50 (A498),GI50 (A549),GI50 (DU-145),GI50 (HCC 2998),GI50 (HOP-62),GI50 (HOP-92),GI50 (HT-29),GI50 (Hs-578T),GI50 (IGROV-1),GI50 (K562),GI50 (MDA-N),GI50 (Malme-3M),GI50 (NCI-H23),GI50 (NCI/ADR-RES),GI50 (SK-MEL-5),GI50 (SNB-75),GI50 (SW-620),GI50 (TK-10),GI50 (U-251),GI50 (UO-31)
CCn1c2ccccc2c2cc(NC(=O)c3c(C)nc(O)nc3NCCNCCO)ccc21,> 100 µM (inactive),> 100 µM (inactive),> 100 µM (inactive),> 100 µM (inactive),> 100 µM (inactive),> 100 µM (inactive),> 100 µM (inactive),> 100 µM (inactive),> 100 µM (inactive),> 100 µM (inactive),> 100 µM (inactive),> 100 µM (inactive),> 100 µM (inactive),> 100 µM (inactive),> 100 µM (inactive),> 100 µM (inactive),> 100 µM (inactive),> 100 µM (inactive),> 100 µM (inactive),> 100 µM (inactive)
CC(=O)Nc1cc([As](=O)(O)O)ccc1O [ACETARSONE],> 100 µM (inactive),> 100 µM (inactive),> 100 µM (inactive),> 100 µM (inactive),> 100 µM (inactive),> 100 µM (inactive),> 100 µM (inactive),> 100 µM (inactive),> 100 µM (inactive),> 100 µM (inactive),> 100 µM (inactive),> 100 µM (inactive),> 100 µM (inactive),> 100 µM (inactive),> 100 µM (inactive),> 100 µM (inactive),> 100 µM (inactive),> 100 µM (inactive),> 100 µM (inactive),> 100 µM (inactive)
CCCCc1ccc(Nc2nc(Cl)c3c(ncn3C3CC(Oc4ccc(C)cc4)C(COc4ccc(C)cc4)O3)n2)cc1 (centres undefined),> 100 µM (inactive),> 100 µM (inactive),> 100 µM (inactive),> 100 µM (inactive),> 100 µM (inactive),> 100 µM (inactive),> 100 µM (inactive),42.5 µM (inactive),> 100 µM (inactive),> 100 µM (inactive),> 100 µM (inactive),> 100 µM (inactive),> 100 µM (inactive),> 100 µM (inactive),> 100 µM (inactive),22.8 µM (inactive),> 100 µM (inactive),> 100 µM (inactive),> 100 µM (inactive),> 100 µM (inactive)
CN1CC[C@@]2(c3cccc(O)c3)CC(=O)/C(=C/c3ccc(Cl)c(Cl)c3)[C@H]1C2,13.6 µM (inactive),3.28 µM (inactive),5.04 µM (inactive),1.82 µM (inactive),2.67 µM (inactive),4.49 µM (inactive),1.42 µM (inactive),2.51 µM (inactive),2.23 µM (inactive),0.433 µM (active),1.87 µM (inactive),3.44 µM (inactive),3.4 µM (inactive),2.38 µM (inactive),2 µM (inactive),1.06 µM (active),1.68 µM (inactive),14 µM (inactive),1.38 µM (inactive),2.07 µM (inactive)
CCCCCC(C/C=N/N(C)C)C(O)(C(F)(F)F)C(F)(F)F (centres undefined),23.7 µM (inactive),37.2 µM (inactive),33.3 µM (inactive),35.1 µM (inactive),42.3 µM (inactive),33 µM (inactive),29 µM (inactive),35.6 µM (inactive),19 µM (inactive),22.5 µM (inactive),38.4 µM (inactive),25.4 µM (inactive),25.2 µM (inactive),> 100 µM (inactive),16.6 µM (inactive),29 µM (inactive),38 µM (inactive),54.2 µM (inactive),25.4 µM (inactive),36.2 µM (inactive)
O=C(Nc1cnc(O)nc1O)Oc1ccccc1,> 100 µM (inactive),> 100 µM (inactive),> 100 µM (inactive),> 100 µM (inactive),> 100 µM (inactive),> 100 µM (inactive),> 100 µM (inactive),> 100 µM (inactive),> 100 µM (inactive),> 100 µM (inactive),> 100 µM (inactive),> 100 µM (inactive),> 100 µM (inactive),> 100 µM (inactive),> 100 µM (inactive),> 100 µM (inactive),> 100 µM (inactive),> 100 µM (inactive),> 100 µM (inactive),> 100 µM (inactive)
N#CC(c1ccccc1)N(CCc1ccccc1)C(=O)c1ccc(C(=O)N(CCc2ccccc2)C(C#N)c2ccccc2)cc1 (centres undefined),30.5 µM (inactive),26.7 µM (inactive),42.6 µM (inactive),15.3 µM (inactive),,12.9 µM (inactive),19 µM (inactive),12.9 µM (inactive),23.9 µM (inactive),20.9 µM (inactive),24 µM (inactive),19.3 µM (inactive),25.5 µM (inactive),17.9 µM (inactive),13.5 µM (inactive),19.3 µM (inactive),22.9 µM (inactive),13.9 µM (inactive),24.3 µM (inactive),19.4 µM (inactive)
CC(C)(CN1CCCCC1)C(=O)CC(SCCS(=O)(=O)O)c1ccccc1 (centres undefined),14.9 µM (inactive),27.4 µM (inactive),11.2 µM (inactive),23.3 µM (inactive),30.8 µM (inactive),5.64 µM (inactive),11.4 µM (inactive),36.1 µM (inactive),26.4 µM (inactive),2.7 µM (inactive),16.3 µM (inactive),12.7 µM (inactive),> 10 µM (inactive),13.4 µM (inactive),16.3 µM (inactive),20.4 µM (inactive),11.1 µM (inactive),16.9 µM (inactive),21.6 µM (inactive),12.1 µM (inactive)
Cc1ccc(/N=N/NCCCCN)cc1,> 100 µM (inactive),8.75 µM (inactive),> 100 µM (inactive),> 100 µM (inactive),> 100 µM (inactive),> 100 µM (inactive),> 100 µM (inactive),> 100 µM (inactive),> 100 µM (inactive),> 10 µM (inactive),> 100 µM (inactive),> 100 µM (inactive),> 100 µM (inactive),> 100 µM (inactive),23.8 µM (inactive),> 100 µM (inactive),> 100 µM (inactive),> 100 µM (inactive),,12.2 µM (inactive)
CCOC(=O)c1cc(-c2ccc(OC)c(OC)c2)c[nH]1,> 10 µM (inactive),> 10 µM (inactive),> 10 µM (inactive),> 10 µM (inactive),> 10 µM (inactive),> 10 µM (inactive),> 10 µM (inactive),> 10 µM (inactive),> 10 µM (inactive),> 10 µM (inactive),> 10 µM (inactive),> 10 µM (inactive),> 10 µM (inactive),> 10 µM (inactive),> 10 µM (inactive),5.08 µM (inactive),,> 10 µM (inactive),> 10 µM (inactive),> 10 µM (inactive)
O=c1c2sc3nc(NCCN4CCCCC4)ncc3c2ncn1-c1ccccc1,> 100 µM (inactive),40.6 µM (inactive),> 100 µM (inactive),> 100 µM (inactive),42.1 µM (inactive),27.3 µM (inactive),30.5 µM (inactive),36.4 µM (inactive),40 µM (inactive),47.1 µM (inactive),80.5 µM (inactive),20.1 µM (inactive),> 100 µM (inactive),62.5 µM (inactive),19.2 µM (inactive),45.3 µM (inactive),46.7 µM (inactive),48.3 µM (inactive),44.4 µM (inactive),19.7 µM (inactive)
CC1OC(OC2C(O)COC(OC3C(C)OC(OC4C(OC(=O)[C@]56CCC(C)(C)C[C@@H]5C5=CCC7[C@@]8(C)C[C@H](O)[C@H](OC9OC(CO)C(O)C(O)C9O)[C@@](C)(CO)[C@@H]8CC[C@@]7(C)[C@]5(C)CC6)OCC(O)C4O)C(O)C3OC3OCC(O)C(O)C3O)C2O)C(O)C(O)C1O (some centres undefined),14.3 µM (inactive),14 µM (inactive),18.4 µM (inactive),16.6 µM (inactive),17.8 µM (inactive),24.8 µM (inactive),,40.9 µM (inactive),,42.9 µM (inactive),18.8 µM (inactive),34.4 µM (inactive),20.8 µM (inactive),26.2 µM (inactive),19.5 µM (inactive),22.6 µM (inactive),14.9 µM (inactive),17.3 µM (inactive),20 µM (inactive),5.19 µM (inactive)
Cc1cc2c(s1)C(=O)c1sccc1C2=O,1.78 µM (inactive),0.625 µM (active),1.83 µM (inactive),1.75 µM (inactive),,1.52 µM (inactive),2.04 µM (inactive),0.417 µM (active),1.66 µM (inactive),1.91 µM (inactive),0.171 µM (active),0.168 µM (active),0.171 µM (active),0.459 µM (active),0.162 µM (active),0.397 µM (active),0.275 µM (active),2.85 µM (inactive),1.29 µM (inactive),0.805 µM (active)
Cc1[nH]n(-c2ncc(C#N)c(=O)[nH]2)c(=O)c1CCO,> 100 µM (inactive),> 100 µM (inactive),> 100 µM (inactive),> 100 µM (inactive),> 100 µM (inactive),> 100 µM (inactive),> 100 µM (inactive),> 100 µM (inactive),> 100 µM (inactive),> 100 µM (inactive),> 100 µM (inactive),> 100 µM (inactive),> 100 µM (inactive),> 100 µM (inactive),> 100 µM (inactive),16.4 µM (inactive),> 100 µM (inactive),> 100 µM (inactive),> 100 µM (inactive),> 100 µM (inactive)
